{"source": "patent US11633420B2", "about": "“Method of treating leukemia” (Epizyme, Inc., priority 2012, dated 2023)", "key": {"[1]": {"test_system": "MOLM-13 (MLL-AF9) cells", "test": "In vitro anti-proliferative assay, MOLM-13", "type": "cell-based, human", "conditions": "up to 14 days", "experimental": "(§1) In Vitro Anti-Proliferative Assay. The potency and selectivity of the anti-proliferative activity of the compounds of the present invention were assessed using a panel of MLL-rearranged and non-MLL-rearranged human leukemia cell lines. The MLL-rearranged panel included cell lines derived from ALL, AML and biphenotypic leukemias harboring MLL-AF4, MLL-AF9 or MLL-ENL fusions. These cell lines recruit DOT1L.\n(§2) Exponentially growing cells were plated, in triplicate, in 96-well plates at a density of 3×10^4 cells/well in a final volume of 150 μl. […] Anti-proliferative activity was determined by cell viability measurements every 3-4 days for up to 14 days."}, "[2]": {"test_system": "MV4-11 xenograft tumors", "test": "In vivo anti-proliferative assay, mouse xenograft model of MLL-rearranged leukemia", "conditions": "21 days", "experimental": "In Vivo Anti-Proliferative Assay. The in vivo anti-tumor activity of the compounds of the present invention were assessed in a mouse xenograft model of MLL-rearranged leukemia. Four groups of 20 (Groups 1, 3, 4 and 5), and one group of 8 (Group 2) female nude mice (average weight of 0.023 kg) bearing MV4-11 xenograft tumors of sizes ranging from 80-120 mm^3 were implanted subcutaneously with minipumps (Alzet Model 2001). Group 1 received vehicle only from the pump. Group 2 received vehicle only from the pump plus ip injections tid (8 hours apart) of vehicle. […] Pumps were designed to last for 7 days and were exchanged twice to give total infusion duration of 21 days exposure. […] Blood samples were taken from Group 3 on days 7 and 14 at the following time points (3 animals per time point): 5 minutes pre-ip dose, and 15 min, 30 min, 1, 2, and 4 hours post ip dose. On day 21 three hours after the last ip injection, a single blood sample was taken from Group 3. Tumor size was measured every 4 days. After 21 days the study was terminated, and mean TGI calculated."}, "[3]": {"test_system": "HL-60 cells (non-MLL-rearranged)", "test": "In vitro anti-proliferative assay, HL-60", "type": "cell-based, human", "conditions": "HL-60, up to 14 days", "experimental": "as §1, §2"}, "[4]": {"test_system": "MV4;11 (MLL-AF4) cells", "test": "In vitro anti-proliferative assay, MV4;11", "type": "cell-based, human", "conditions": "up to 14 days", "experimental": "as §1, §2"}, "[5]": {"test_system": "EOL-1 cells (MLL-PTD)", "test": "In vitro anti-proliferative assay, EOL-1", "type": "cell-based", "conditions": "Homo sapiens, EOL1, 336 h; EOL-1 (MLL-PTD), up to 14 days", "experimental": "as §1, §2"}, "[6]": {"test_system": "Jurkat cells (non-MLL-rearranged)", "test": "In vitro anti-proliferative assay, Jurkat", "type": "cell-based, human", "conditions": "up to 14 days", "experimental": "as §1, §2"}, "[7]": {"test_system": "KOPN-8 (MLL-ENL) cells", "test": "In vitro anti-proliferative assay, KOPN-8", "type": "cell-based, human", "conditions": "up to 14 days", "experimental": "as §1, §2"}}}
{"compound": "CC(C)N(C[C@H]1O[C@@H](n2cnc3c(N)ncnc32)[C@H](O)[C@@H]1O)[C@H]1C[C@@H](CCc2nc3cc(C(C)(C)C)ccc3[nH]2)C1", "note": "[Compound 2, (2R,3R,4S,5R)-2-(6-amino-9H-purin-9-yl)-5-((((1r,3S)-3-(2-(5-(tert-butyl)-1H-benzo[d]imidazol-2-yl)ethyl)cyclobutyl)(isopropyl)amino)methyl)tetrahydrofuran-3,4-diol]", "values": [{"measurement": "anti-proliferative activity (IC50)", "setting": "[1]", "value": "potent nanomolar anti-proliferative activity"}, {"measurement": "TGI compared to controls", "setting": "[2]; 56 mg/kg/day minipump, non-statistically significant", "value": 43, "unit": "%"}, {"measurement": "TGI compared to controls", "setting": "[2]; 112 mg/kg/day minipump, non-statistically significant", "value": 38, "unit": "%"}, {"measurement": "TGI compared to controls", "setting": "[2]; Group 3: 112 mg/kg/day minipump plus ip 20 mg/kg tid (172 mg/kg/day), statistically significant", "value": "> 70", "unit": "%"}, {"measurement": "anti-proliferative activity", "setting": "[3]", "value": "no activity"}, {"measurement": "anti-proliferative activity (IC50)", "setting": "[4]", "value": "potent nanomolar anti-proliferative activity"}, {"measurement": "IC50", "setting": "[5]", "value": 0.011, "unit": "µM"}, {"measurement": "anti-proliferative activity", "setting": "[6]", "value": "no activity"}, {"measurement": "anti-proliferative activity (IC50)", "setting": "[7]", "value": "potent nanomolar anti-proliferative activity"}]}
